Source: article PMC8123576 (International Journal of Molecular Sciences, 2021)
Where two headings read alike, the source gives them in different places.

Experiments:
Hs27 cells = test: Cytotoxicity assay (CellTiter 96 AQueous One) on Hs27; type: cell-based, human; details: Hs27 cells, 24 h treatment
Protocol: (§1) The best antifungal and/or antiaflatoxigenic compounds were tested to determine their cytotoxic activity against human normal cell lines deriving from lung (HFL1, ATCC and CCL-153), skin (Hs27, ATCC, CRL1634) and colon (Crl1790, ATCC, CCD 841 CoN) and a cell line deriving from a hematological tumor (U937, ATCC and CRL-3253). These different cell lines have been chosen to simulate the different human exposition routes to pesticide. Cell culture conditions have been previously reported. Compound cytotoxicity was determined using CellTiter 96® AQueous One Solution Cell Proliferation Assay (Promega Corporation, Madison, WI, USA). The very detailed protocol was described by Bartoli et al.. In brief, cells were seeded in a 96-well plate at a density of 5000 cells/well and after 24 h cells were treated with different concentrations of the compounds (0.5–1–5–10–50–100 µM). After the treatment period (24 h), the CellTiter Reagent was added to each well (20 µL/well) and the plate incubated for 4 h at 37 °C. The plate was then read at 485 nm in a multiwell plate reader (TECAN SpectraFluor Plus, Männedorf, Switzerland).

[1] = as above; type: cell-based, human; details: human, Hs27 normal skin cells, Hs27, 24 h, dose 0 = 100.00, read-out: Growth inhibition data
Protocol: as §1

A. cepa = A. cepa toxicity test (root length); type: in vivo, Allium cepa; details: for Roots Length: NC 2.07 ± 0.61
Protocol: A. cepa toxicity test: Twelve equal-sized young onion bulbs were exposed for 96 h in the dark to different concentrations of compounds dissolved in DMSO, changing the sample solution every day. […] Root macroscopic parameters such as turgescence, consistency, change in color and root tip shape, were used as toxicity indexes.

[2] = system: aflatoxin accumulation by A. flavus; test: microbe, parasite or virus in culture; type: cell-based, Aspergillus flavus; details: Aspergillus flavus
A. cepa root cells = details: for MN (micronuclei frequency): NC 1.10 ± 1.28; for CA (aberrated cells / total cells in mitosis): NC 1.2
Protocol: To detect micronuclei and chromosomal aberrations six equal-sized pre-germinated young bulbs per sample were exposed for 24 h to sample dilutions. The bulbs dedicated to the micronuclei test underwent an additional treatment in the saline solution for 44 h of recovery time to cover two rounds of mitosis so that damage induced in chromosomes during mitosis to be visible as micronuclei in interphase cells. Then all the roots were fixed in acetic acid and ethanol (1:3) for 24 h and lastly stored in 70% ethanol. The negative control was DMSO in Rank’s solution (the dose of DMSO corresponding to volume of samples) and positive control was maleic hydrazide (10^−2 M, 6 h exposure). […] All experiments were performed in duplicate.

A. flavus = test: microbe, parasite or virus in culture; type: cell-based, Aspergillus flavus; details: 10 to 100 µM; complexes compared with their ligand
[3] = Cytotoxicity assay (CellTiter 96 AQueous One) on U937; type: cell-based, human; details: human, U937 cells (hematological tumor line), U937, 24 h, dose 0 = 100.00, read-out: Growth inhibition data
Protocol: as §1

U937 cells = test: as above; type: cell-based, human; details: U937 cells, 24 h treatment
Protocol: as §1

[4] = system: S. typhimurium TA98 and TA100 strains; test: Ames test, overall mutagenicity verdict in bacteria; details: TA98 and TA100, -S9 and +S9
S. typhimurium TA98 = details: for TA98 + S9 revertants/plate: NC 26.5 ± 5.4; for TA98 revertants/plate: NC 15.7 ± 4.9
Crl1790 cells = test: Cytotoxicity assay (CellTiter 96 AQueous One) on Crl1790; type: cell-based, human; details: Crl1790 cells, 24 h, only at the highest concentration (100 µM)
Protocol: as §1

[5] = as above; type: cell-based, human; details: human, Crl1790 (CCD 841 CoN) normal colon cells, Crl1790, 24 h, dose 0 = 100.00, read-out: Growth inhibition data
Protocol: as §1

HFL1 cells = test: Cytotoxicity assay (CellTiter 96 AQueous One) on HFL1; type: cell-based, human; details: HFL1 cells, 24 h treatment
Protocol: as §1

[6] = as above; type: cell-based, human; details: human, HFL1 normal lung cells, HFL1, 24 h, dose 0 = 100.00, read-out: Growth inhibition data
Protocol: as §1

[7] = read-out: A.I. (%) (aflatoxin accumulation inhibition)

## CC(=NNC(N)=S)c1cccs1 [2-actpTS, 2-acetylthiophenethiosemicarbazone]
Hs27 cells
  cytotoxic effect: did not show cytotoxic effect
[1]; 0.5 µM
  viability at 24 h, 0.5 µM: 99.9 ± 7.65%
[1]; 1 µM
  viability at 24 h, 1 µM: 97 ± 4.78%
[1]; 5 µM
  viability at 24 h, 5 µM: 100 ± 5.97%
[1]; 10 µM
  viability at 24 h, 10 µM: 97.7 ± 3.73%
[1]; 50 µM
  viability at 24 h, 50 µM: 100 ± 9.25%
[1]; 100 µM
  viability at 24 h, 100 µM: 87.3 ± 8.07%
A. cepa; 10 µM
  Roots Length: 2.17 ± 0.53 cm
A. cepa; 25 µM
  Roots Length: 1.65 ± 0.43 cm
A. cepa; 50 µM
  Roots Length: 1.68 ± 0.39 cm
A. cepa; 100 µM
  Roots Length: 1.07 ± 0.23 cm
A. cepa; Allium cepa, read-out: EC50 (50% A. cepa root growth inhibition), 96 h exposure
  EC50: ~100 µM
[2]; [7]
  inhibition at 50 µM: 58.3%
  inhibition at 100 µM: 88.4%
[2]; read-out: percentage of aflatoxin accumulation inhibition
  inhibition at 10 µM: 23%
A. cepa root cells; 10 µM
  MN (micronuclei frequency): 1.20 ± 0.83%
  CA (aberrated cells / total cells in mitosis): 2.7%
A. cepa root cells; 25 µM
  MN (micronuclei frequency): 1.40 ± 1.14%
  CA (aberrated cells / total cells in mitosis): 4.7%
A. cepa root cells; 50 µM
  MN (micronuclei frequency): 2.00 ± 1.58%
  CA (aberrated cells / total cells in mitosis): 6.3%
A. cepa root cells; 100 µM dose
  toxicity to roots in the micronuclei test: highly toxic
A. cepa root cells; 100 µM
  CA (aberrated cells / total cells in mitosis): 6.0%
A. flavus
  impact on fungal growth: modest inhibitory activity
[3]; 0.5 µM
  viability at 24 h, 0.5 µM: 100 ± 9.43%
[3]; 1 µM
  viability at 24 h, 1 µM: 100 ± 4.23%
[3]; 5 µM
  viability at 24 h, 5 µM: 100 ± 6.71%
[3]; 10 µM
  viability at 24 h, 10 µM: 100 ± 7.06%
[3]; 50 µM
  viability at 24 h, 50 µM: 100 ± 3.6%
[3]; 100 µM
  viability at 24 h, 100 µM: 94.7 ± 8.15%
U937 cells
  50% inhibition of cell proliferation: did not induce 50% inhibition of cell proliferation
[4]
  mutagenicity in bacteria: no mutagenicity at any of the concentrations tested
S. typhimurium TA98; +S9, 0.1 µM/plate
  TA98 + S9 MR (mutagenicity ratio): 0.9
  TA98 + S9 revertants/plate: 25.0 ± 0.0 revertants/plate
S. typhimurium TA98; +S9, 1.0 µM/plate
  TA98 + S9 MR (mutagenicity ratio): 1.4
  TA98 + S9 revertants/plate: 37.0 ± 4.2 revertants/plate
S. typhimurium TA98; +S9, 10.0 µM/plate
  TA98 + S9 MR (mutagenicity ratio): 1.3
  TA98 + S9 revertants/plate: 34.0 ± 2.8 revertants/plate
S. typhimurium TA98; +S9, 50.0 µM/plate
  TA98 + S9 MR (mutagenicity ratio): 1.2
  TA98 + S9 revertants/plate: 31.5 ± 6.4 revertants/plate
S. typhimurium TA98; +S9, 100.0 µM/plate
  TA98 + S9 MR (mutagenicity ratio): 1.2
  TA98 + S9 revertants/plate: 32.0 ± 2.8 revertants/plate
S. typhimurium TA98; -S9, 0.1 µM/plate
  TA98 MR (mutagenicity ratio): 1.9
  TA98 revertants/plate: 29.5 ± 3.5 revertants/plate
S. typhimurium TA98; -S9, 1.0 µM/plate
  TA98 MR (mutagenicity ratio): 1.5
  TA98 revertants/plate: 23.5 ± 6.4 revertants/plate
S. typhimurium TA98; -S9, 10.0 µM/plate
  TA98 MR (mutagenicity ratio): 1.0
  TA98 revertants/plate: 16.0 ± 1.4 revertants/plate
S. typhimurium TA98; -S9, 50.0 µM/plate
  TA98 MR (mutagenicity ratio): 1.4
  TA98 revertants/plate: 22.5 ± 3.5 revertants/plate
S. typhimurium TA98; -S9, 100.0 µM/plate
  TA98 MR (mutagenicity ratio): 1.3
  TA98 revertants/plate: 21.0 ± 0.0 revertants/plate
Crl1790 cells
  cytotoxic activity: mild cytotoxic activity
[5]; 0.5 µM
  viability at 24 h, 0.5 µM: 100 ± 3.63%
[5]; 1 µM
  viability at 24 h, 1 µM: 95.1 ± 7.76%
[5]; 5 µM
  viability at 24 h, 5 µM: 88.4 ± 2.25%
[5]; 10 µM
  viability at 24 h, 10 µM: 89.1 ± 5.24%
[5]; 50 µM
  viability at 24 h, 50 µM: 81.8 ± 3.48%
[5]; 100 µM
  viability at 24 h, 100 µM: 62 ± 4.6%
HFL1 cells
  50% inhibition of cell proliferation: did not induce 50% inhibition of cell proliferation
[6]; 0.5 µM
  viability at 24 h, 0.5 µM: 100 ± 11.1%
[6]; 1 µM
  viability at 24 h, 1 µM: 100 ± 6.11%
[6]; 5 µM
  viability at 24 h, 5 µM: 100 ± 5.74%
[6]; 10 µM
  viability at 24 h, 10 µM: 100 ± 6.76%
[6]; 50 µM
  viability at 24 h, 50 µM: 100 ± 4.53%
[6]; 100 µM
  viability at 24 h, 100 µM: 92.5 ± 3.49%
